This is an account of results in US20220174981A1, “PROLINE TOLERANT TRIPEPTIDYL PEPTIDASES AND USES THEREOF” (DuPont Nutrition Biosciences APS, priority 2014, published 2022).

The test system of experiment [1] is proline tolerant tripeptidyl peptidase (TRI083). The experiment in a line: Hydrolysis of 33-mer gliadin peptide, LC-MS label-free quantification. The class given is biochemical. The following applies: for Relative MS peak intensities: 24° C., pH 4.5. On the procedure:
The 33-mer of gliadin (alpha-2-gliadin) (aa56-88) H-[…]-OH (Zedira GmbH; D-64293 Darmstadt, Germany) C190H273N43O47 (MW=3911.46) (1 mg/ml; 0.26 mM) was incubated at 24° C. in the presence of proline tolerant tripeptidyl peptidase (0.01 mg/ml TRI083) in a total volume of 1000 ul buffer (pH=4.5) (the ratio substrate/enzyme 100:1, w/w). Aliquots (100 ul) of enzyme reaction were stopped with 20 ul 5% trifluoroacetic acid (TFA) after 0, 1, 3, 5, 10, 15 and 30 minutes, respectively. The samples were then transferred to new vials and analyzed on the LTQ Orbitrap mass spectrometer.
The LC-MS/MS data was manually annotated using GPMAW to calculate theoretical values of fragmentation.

For experiment [2], the system named is H-Ala-Ala-Phe-pNA. The experiment can be described thus: Low pH stability of tripeptidyl peptidases (pH 2.5, 40° C., 60 min), activity on H-Ala-Ala-Phe-pNA. The class given is biochemical. The following applies: for OD410nm (Final): after pH 2.5, 40° C., 60 min; for OD410nm (Initial): without incubation at 40° C. for 60 min. On the procedure:
As requirements for utilization of the enzymes in feed for monogastric animals, the enzymes should be active at lower pH. For this reason the number of tripeptidyl peptidases has been tested with the reaction on synthetic substrate AAF (H-Ala-Ala-Phe-pNA. BACHEM, L-1095), at pH 2.5.
The tripeptide substrate AAF was prepared at 2.5 mg/ml in DMSO. Tripeptidyl peptidases were used as broth. The reaction mixture containing 2.5 μl enzyme and 90 μL glycine acetic acid-Tris buffer (each buffer components at 50 mM, pH 2.5) was prepared in 96 well incubation plates.
The incubation plate was mixed and incubated at 40° C. for 60 min. Then 50 μl 0.2M Mes-NaOH pH6.0 was added to each well, mixed at 600 rpm for 2 min. After that, 5 ul of the incubation mixture were taken to 96 well assay plate already filled with 85 μl 0.1M acetic acid buffer, pH4.0 and 5 μl 2.5 mg/ml AAF substrate solution.
The reaction mixture was stirred at 600 rpm for 2 min and read directly in a microplate reader (Molecular Devices, Denmark) at 410 nm at 30° C. every 30 second for 15 min.
To measure initial enzyme activity, similar procedure was performed except the step of enzyme incubation at 40° C. for 60 min.

Sequence of proline tolerant tripeptidyl peptidase (TRI083) (as listed by the source): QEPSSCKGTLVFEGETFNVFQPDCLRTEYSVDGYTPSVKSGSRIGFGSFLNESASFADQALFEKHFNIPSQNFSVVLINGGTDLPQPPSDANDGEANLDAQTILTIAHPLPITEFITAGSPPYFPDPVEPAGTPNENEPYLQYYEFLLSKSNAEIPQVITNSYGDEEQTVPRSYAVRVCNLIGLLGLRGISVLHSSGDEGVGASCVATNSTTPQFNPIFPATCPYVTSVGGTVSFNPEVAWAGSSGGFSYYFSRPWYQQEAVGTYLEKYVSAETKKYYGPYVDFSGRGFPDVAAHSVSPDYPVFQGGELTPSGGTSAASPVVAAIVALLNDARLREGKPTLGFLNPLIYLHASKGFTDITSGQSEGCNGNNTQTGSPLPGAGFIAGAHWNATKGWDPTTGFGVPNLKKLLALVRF

Take “H-LQLQPFPQPQLPYPQPQLPYPQPQLPYPQPQPF-OH [Alpha-2 gliadin, 33-mer of gliadin (alpha-2-gliadin) (aa56-88), substrate, reference compound]”: the “Relative MS peak intensities” value came out at 100 in experiment [1] (0 min with TRI083 0.01 mg/ml); 10 in experiment [1] (1 min with TRI083 0.01 mg/ml); 0 in experiment [1] (3 min with TRI083 0.01 mg/ml); 0 in experiment [1] (5 min with TRI083 0.01 mg/ml); 0 in experiment [1] (10 min with TRI083 0.01 mg/ml); 0 in experiment [1] (15 min with TRI083 0.01 mg/ml). The “Relative MS peak intensities” value in experiment [1] (30 min with TRI083 0.01 mg/ml) was found to be 0. Moreover, the “detectability of the intact peptide over time” value in experiment [1] (TRI083 0.01 mg/ml, substrate/enzyme 100:1) is on record as “not detectable after 3 min”. Also, the “cleavage by proline tolerant tripeptidyl peptidase” value in experiment [1] (proline in P3,P2,P1,P1′,P2′ and P3′ positions) was “consecutively into tri-peptides irrespective of a high proline content”.

As to LPY, the “Relative MS peak intensities” value in experiment [1] (0 min with TRI083 0.01 mg/ml) amounted to 5; in experiment [1] (1 min with TRI083 0.01 mg/ml) it was 21; in experiment [1] (3 min with TRI083 0.01 mg/ml) it was 46; in experiment [1] (5 min with TRI083 0.01 mg/ml), 62; in experiment [1] (10 min with TRI083 0.01 mg/ml) it was 90; in experiment [1] (15 min with TRI083 0.01 mg/ml) it was 100. In addition, the “Relative MS peak intensities” value in experiment [1] (30 min with TRI083 0.01 mg/ml) stood at 94.

As to LQL, the “Relative MS peak intensities” value in experiment [1] (0 min with TRI083 0.01 mg/ml) amounted to 3; in experiment [1] (1 min with TRI083 0.01 mg/ml) it was 91; in experiment [1] (3 min with TRI083 0.01 mg/ml), 88; in experiment [1] (5 min with TRI083 0.01 mg/ml), 94; in experiment [1] (10 min with TRI083 0.01 mg/ml), 94; in experiment [1] (15 min with TRI083 0.01 mg/ml) it was 100. Moreover, in experiment [1] (30 min with TRI083 0.01 mg/ml), the “Relative MS peak intensities” value is 100.

With PQL, the “Relative MS peak intensities” value is 8 in experiment [1] (0 min with TRI083 0.01 mg/ml); 21 in experiment [1] (1 min with TRI083 0.01 mg/ml); 30 in experiment [1] (3 min with TRI083 0.01 mg/ml); 32 in experiment [1] (5 min with TRI083 0.01 mg/ml); 42 in experiment [1] (10 min with TRI083 0.01 mg/ml); 58 in experiment [1] (15 min with TRI083 0.01 mg/ml). Further, in experiment [1] (30 min with TRI083 0.01 mg/ml), the “Relative MS peak intensities” value was found to be 100.

Turning to PYP, the “Relative MS peak intensities” value in experiment [1] (0 min with TRI083 0.01 mg/ml) is reported as 4; in experiment [1] (1 min with TRI083 0.01 mg/ml), 7; in experiment [1] (3 min with TRI083 0.01 mg/ml) it was 12; in experiment [1] (5 min with TRI083 0.01 mg/ml), 15; in experiment [1] (10 min with TRI083 0.01 mg/ml), 28; in experiment [1] (15 min with TRI083 0.01 mg/ml), 48. For the same molecule, the “Relative MS peak intensities” value in experiment [1] (30 min with TRI083 0.01 mg/ml) is 101.

Turning to QPF, the “Relative MS peak intensities” value in experiment [1] (0 min with TRI083 0.01 mg/ml) was 0; in experiment [1] (1 min with TRI083 0.01 mg/ml) it was 4; in experiment [1] (3 min with TRI083 0.01 mg/ml), 55; in experiment [1] (5 min with TRI083 0.01 mg/ml), 7; in experiment [1] (10 min with TRI083 0.01 mg/ml) it was 129; in experiment [1] (15 min with TRI083 0.01 mg/ml), 26. The “Relative MS peak intensities” value in experiment [1] (30 min with TRI083 0.01 mg/ml) turned out to be 100.

Regarding “YPQPQLPYPQPQLPYPQPQPF [intermediate product of alpha-2-gliadin hydrolysis]”, the “Relative MS peak intensities” value is given as 79 in experiment [1] (0 min with TRI083 0.01 mg/ml); 100 in experiment [1] (1 min with TRI083 0.01 mg/ml); 52 in experiment [1] (3 min with TRI083 0.01 mg/ml); 23 in experiment [1] (5 min with TRI083 0.01 mg/ml); 23 in experiment [1] (10 min with TRI083 0.01 mg/ml); 23 in experiment [1] (15 min with TRI083 0.01 mg/ml). Further, in experiment [1] (30 min with TRI083 0.01 mg/ml), the “Relative MS peak intensities” value stood at 20.

B1: TRI050: tripeptidyl peptidase, SEQ ID No. 7/SEQ ID No. 34, used as broth (protein, listed as Fusarium graminearum)
chain 1: KSYSHHAEAPKGWKVDDTARVASTGKQQVFSIALTMQNVDQLESKLLDLSSPDSKNYGQWMSQKDVTTAFYPSKEAVSSVTKWLKSKGVKHYNVNGGFIDFALDVKGANALLDSDYQYYTKEGQTKLRTLSYSIPDDVAEHVQFVDPSTNFGGTLAFAPVTHPSRTLTERKNKPTKSTVDASCQTSITPSCLKQMYNIGDYTPKVESGSTIGFSSFLGESAIYSDVFLFEEKFGIPTQNFTTVLINNGTDDQNTAHKNFGEADLDAENIVGIAHPLPFTQYITGGSPPFLPNIDQPTAADNQNEPYVPFFRYLLSQKEVPAVVSTSYGDEEDSVPREYATMTCNLIGLLGLRGISVIFSSGDIGVGAGCLGPDHKTVEFNAIFPATCPYLTSVGGTVDVTPEIAWEGSSGGFSKYFPRPSYQDKAVKTYMKTVSKQTKKYYGPYTNWEGRGFPDVAGHSVSPNYEVIYAGKQSASGGTSAAAPVWAAIVGLLNDARFRAGKPSLGWLNPLVYKYGPKVLTDITGGYAIGCDGNNTQSGKPEPAGSGIVPGARWNATAGWDPVTGYGTPDFGKLKDLVLSF
chain 2: CQTSITPSCLKQMYNIGDYTPKVESGSTIGFSSFLGESAIYSDVFLFEEKFGIPTQNFTTVLINNGTDDQNTAHKNFGEADLDAENIVGIAHPLPFTQYITGGSPPFLPNIDQPTAADNQNEPYVPFFRYLLSQKEVPAVVSTSYGDEEDSVPREYATMTCNLIGLLGLRGISVIFSSGDIGVGAGCLGPDHKTVEFNAIFPATCPYLTSVGGTVDVTPEIAWEGSSGGFSKYFPRPSYQDKAVKTYMKTVSKQTKKYYGPYTNWEGRGFPDVAGHSVSPNYEVIYAGKQSASGGTSAAAPVWAAIVGLLNDARFRAGKPSLGWLNPLVYKYGPKVLTDITGGYAIGCDGNNTQSGKPEPAGSGIVPGARWNATAGWDPVTGYGTPDFGKLKDLVLS
modifications: used as fermentation broth
Turning to B1, the “OD410nm (Final)” value came to 0.814 in experiment [2] and 0.501 in experiment [2] (listed as TRI050.3). In addition, the “OD410nm (Initial)” value in experiment [2] is reported as 0.895; in experiment [2] (listed as TRI050.3), 0.603.

B2: TRI053.1: tripeptidyl peptidase, SEQ ID No. 10/SEQ ID No. 37, used as broth (protein, listed as Aspergillus kawachii)
chain 1: VVHEKLAAVPSGWHHLEDAGSDHQISLSIALARKNLDQLESKLKDLSTPGESQYGQWLDQEEVDTLFPVASDKAVISWLRSANITHIARQGSLVNFATTVDKVNKLLNTTFAYYQRGSSQRLRTTEYSIPDDLVDSIDLISPTTFFGKEKTSAGLTQRSQKVDNHVAKRSNSSSCADTITLSCLKEMYNFGNYTPSASSGSKLGFASFLNESASYSDLAKFERLFNLPSQNFSVELINGGVNDQNQSTASLTEADLDVELLVGVGHPLPVTEFITSGEPPFIPDPDEPSAADNENEPYLQYYEYLLSKPNSALPQVISNSYGDDEQTVPEYYAKRVCNLIGLVGLRGISVLESSGDEGIGSGCRTTDGTNSTQFNPIFPATCPYVTAVGGTMSYAPEIAWEASSGGFSNYFERAWFQKEAVQNYLANHITNETKQYYSQFANFSGRGFPDVSAHSFEPSYEVIFYGARYGSGGTSAACPLFSALVGMLNDARLRAGKSTLGFLNPLLYSKGYKALTDVTAGQSIGCNGIDPQSDEAVAGAGIIPWAHWNATVGWDPVTGLGLPDFEKLRQLVLSL
chain 2: CADTITLSCLKEMYNFGNYTPSASSGSKLGFASFLNESASYSDLAKFERLFNLPSQNFSVELINGGVNDQNQSTASLTEADLDVELLVGVGHPLPVTEFITSGEPPFIPDPDEPSAADNENEPYLQYYEYLLSKPNSALPQVISNSYGDDEQTVPEYYAKRVCNLIGLVGLRGISVLESSGDEGIGSGCRTTDGTNSTQFNPIFPATCPYVTAVGGTMSYAPEIAWEASSGGFSNYFERAWFQKEAVQNYLANHITNETKQYYSQFANFSGRGFPDVSAHSFEPSYEVIFYGARYGSGGTSAACPLFSALVGMLNDARLRAGKSTLGFLNPLLYSKGYKALTDVTAGQSIGCNGIDPQSDEAVAGAGIIPWAHWNATVGWDPVTGLGLPDFEKLRQLVLS
modifications: used as fermentation broth
On to B2, for which, in experiment [2], the “OD410nm (Final)” value turned out to be 0.356 and the “OD410nm (Initial)” value turned out to be 0.345.
